In patent US8273775B2, “Non-steroidal brassinosteroid mimetic” (priority 2006, dated 2012):

Tested on: gene expression in Col-0 seedling shoots
Experiment: Microarray analysis (ATH1 Affymetrix) after BL or abrasin treatment
Assay type: in vivo, Arabidopsis
Description: FIG. 14: Clustering of gene expression profiles by QT-clust analysis. Clusters illustrating the major patterns of the data sets. Points: BIK-30: 30 μM abrasin 30 min; BL-30: 1 μM brassinolide 30 min; DMSO-30: control DMSO 30 min; BIK-120: 30 μM abrasin 120 min; BL-120: 1 μM brassinolide 120 min; DMSO-120: control DMSO 120 min.
Col-0 seeds were germinated vertically on ½ MS medium for 7 days under 16 h light/8 h dark cycles. The seedlings were overlaid with liquid ½ MS medium containing 1 μM brassinolide (BL, Fuji Chemical Industries, Ltd., Toyama, Japan), 30 μM abrasin (BIK, ChemBridge Corporation) and DMSO and treated for 30 and 120 min. The shoot parts were collected for RNA isolation. All sampling points were performed in three independent experiments. RNA was extracted using RNeasy kit (Qiagene). […] total RNA per array was used to hybridise the ATH1 Affymetrix Arabidopsis arrays according to standard procedure. The overrepresentation analyses were performed using BiNGO software (Maere et al., 2005).
We performed a microarray analysis using the Arabidopsis whole genome chip (Affymetix) to determine whether abrasin activated the expression of BR-inducible genes at transcriptional level. Wild-type Col-0 seedlings were exposed to 1 μM BL, 30 μM ABRASIN and DMSO (mock-treatment) for two time points (30 min and 120 min) and the shoot parts were collected for RNA isolation. The analysis of the variance of the normalized gene expression data took in account the variability parameters affecting the expression level: type of hormone treatment, duration of treatment and the interaction between these two.

## O=C(O)CCC(=O)Nc1ccc(Br)cn1 [abrasin, 4-[(5-bromo-2-pyridinyl)amino]-4-oxobutanoic acid]
1 μM BL, 30 μM ABRASIN
  expression of BR biosynthesis genes (CPD, DWF4, BR6OX2), Cluster 1: down-regulated
  expression of WRKY transcription factors, DOF-type proteins, lectin receptor-like kinases, U-box proteins, HAESA: induces the expression
  expression of genes involved in the auxin pathway (IAA29, IAA2): significantly down-regulated
1 μM BL, 30 μM ABRASIN, 30 and 120 min
  induction of early auxin-inducible SAUR family genes, Cluster 3: had an effect only after 2 hours
30 min
  Fold-change AT1G04330 expressed protein: 1.17
  Fold-change AT1G05470 endonuclease/exonuclease/phosphatase family protein: 1.42
  Fold-change AT1G06520 Encodes a membrane associated mitochondrial localized protein: 1.26
  Fold-change AT1G06570 4-hydroxyphenylpyruvate dioxygenase (HPD): 0.91
  Fold-change AT1G10550 xyloglucan:xyloglucosyl transferase: 1.26
  Fold-change AT1G12710 F-box family protein: 0.88
  Fold-change AT1G12750 rhomboid family protein: 1.46
  Fold-change AT1G14130 2-oxoglutarate-dependent dioxygenase: 1.10
  Fold-change AT1G14700 purple acid phosphatase: 0.53
  Fold-change AT1G16640 transcriptional factor B3 family protein: 1.14
  Fold-change AT1G17230 leucine-rich repeat family protein: 1.09
  Fold-change AT1G18020; AT1G17990 [AT1G18020, 12-oxophytodienoate reductase,: 1.31
  Fold-change AT1G19320 pathogenesis-related thaumatin family protein: 0.52
  Fold-change AT1G20350 mitochondrial import inner membrane translocase subunit: 1.00
  Fold-change AT1G21050 expressed protein: 0.32
  Fold-change AT1G21760 F-box family protein: 0.76
  Fold-change AT1G22360 UDP-glucoronosyl/UDP-glucosyl transferase family protein: 0.82
  Fold-change AT1G23080 auxin efflux carrier protein (PIN7): 0.81
  Fold-change AT1G26800 zinc finger (C3HC4-type RING finger) family protein,: 1.07
  Fold-change AT1G27730 zinc finger (C2H2 type) family protein: 0.56
  Fold-change AT1G28130 encodes an IAA-amido synthase: 0.64
  Fold-change AT1G28190 expressed protein: 2.79
  Fold-change AT1G28480 glutaredoxin family protein: 1.02
  Fold-change AT1G31040 zinc-binding protein-related: 1.35
  Fold-change AT1G31310 hydroxyproline-rich glycoprotein family protein: 1.17
  Fold-change AT1G31770 ABC transporter family protein: 0.91
  Fold-change AT1G32190 expressed protein: 0.73
  Fold-change AT1G32690 expressed protein: 0.38
  Fold-change AT1G36940 expressed protein: 0.45
  Fold-change AT1G49780 U-box domain-containing protein: 0.71
  Fold-change AT1G53870; AT1G53890 [AT1G53870, expressed protein: 0.43
  Fold-change AT1G54050 17.4 kDa class III heat shock protein (HSP17.4-CIII): 1.16
  Fold-change AT1G54200 expressed protein: 1.26
  Fold-change AT1G55920 serine O-acetyltransferase: 2.19
  Fold-change AT1G57560 myb family transcription factor (MYB50): 1.19
  Fold-change AT1G59590 expressed protein: 1.99
  Fold-change AT1G59660 nucleoporin family proteinmily: 1.45
  Fold-change AT1G62300 WRKY family transcription factor: 1.58
  Fold-change AT1G63050 membrane bound O-acyl transferase (MBOAT) family protein: 0.75
  Fold-change AT1G66160 U-box domain-containing protein,: 2.03
  Fold-change AT1G66890 expressed protein: 0.65
  Fold-change AT1G68330 expressed protein: 1.76
  Fold-change AT1G68810 basic helix-loop-helix (bHLH) family protein: 0.80
  Fold-change AT1G69160 expressed protein: 0.67
  Fold-change AT1G70990 proline-rich family protein: 1.70
  Fold-change AT1G71030 Encodes a putative myb family transcription factor: 0.92
  Fold-change AT1G72060 expressed protein: 2.19
  Fold-change AT1G72180 leucine-rich repeat transmembrane protein kinase: 0.54
  Fold-change AT1G72800 nuM1-related, contains: 1.15
  Fold-change AT1G75270 dehydroascorbate reductase: 1.16
  Fold-change AT1G75500 nodulin MtN21 family protein: 0.67
  Fold-change AT1G76240 expressed protein,: 0.40
  Fold-change AT1G76410 zinc finger (C3HC4-type RING finger): 0.54
  Fold-change AT1G79110 expressed protein: 0.66
  Fold-change AT1G79630 protein phosphatase 2C family protein: 0.62
  Fold-change AT1G80440 kelch repeat-containing F-box family protein: 1.36
  Fold-change AT2G01300 expressed protein: 0.73
  Fold-change AT2G01990 expressed protein,: 1.89
  Fold-change AT2G04240 zinc finger (C3HC4-type RING finger) family protein: 0.77
  Fold-change AT2G05540 glycine-rich protein: 0.71
  Fold-change AT2G12290; AT4G19700 [AT2G12290, expressed protein]; [AT4G19700, expressed protein]: 0.38
  Fold-change AT2G18010 auxin-responsive family protein (SAUR10): 1.35
  Fold-change AT2G19800 expressed protein: 2.29
  Fold-change AT2G22860 phytosulfokines 2 (PSK2): 0.68
  Fold-change AT2G23180 cytochrome P450, putative: 0.67
  Fold-change AT2G23320 WRKY family transcription factor: 1.41
  Fold-change AT2G26530 expressed protein: 1.24
  Fold-change AT2G26710 cytochrome p450 family (BAS1): 0.72
  Fold-change AT2G28510 Dof-type zinc finger domain-containing protein: 1.28
  Fold-change AT2G29340 short-chain dehydrogenase/reductase (SDR) family protein: 1.55
  Fold-change AT2G29990 pyridine nucleotide-disulphide oxidoreductase family protein: 1.43
  Fold-change AT2G30070 potassium transporter (KUP1): 0.61
  Fold-change AT2G31230 encodes a member of the ERF (ethylene response factor): 2.13
  Fold-change AT2G34650 protein kinase PINOID (PID): 1.04
  Fold-change AT2G36220 expressed protein: 1.10
  Fold-change AT2G37590 Dof-type zinc finger domain-containing protein: 1.52
  Fold-change AT2G38470 WRKY family transcription factor: 2.02
  Fold-change AT2G39710 aspartyl protease family protein: 2.42
  Fold-change AT2G40340; AT2G40350 [AT2G40340, encodes a member of the DREB subfamily A-2 of ERF/AP2: 1.40
  Fold-change AT2G41250 haloacid dehalogenase-like hydrolase family protein: 0.82
  Fold-change AT2G41640 expressed protein: 1.96
  Fold-change AT2G42280 basic helix-loop-helix (bHLH) family protein: 0.67
  Fold-change AT2G43060 expressed protein, similar to cDNA bHLH transcription factor: 0.31
  Fold-change AT2G43280 far-red impaired responsive family protein: 0.78
  Fold-change AT2G43290 calmodulin-like protein (MSS3): 0.81
  Fold-change AT2G44130 kelch repeat-containing F-box family protein: 1.13
  Fold-change AT2G44500 expressed protein: 1.26
  Fold-change AT2G45210 auxin-responsive protein-related: 0.34
  Fold-change AT2G45680 TCP family transcription factor: 0.50
  Fold-change AT2G46225 Encodes a subunit of the WAVE complex: 1.15
  Fold-change AT2G47440 DNAJ heat shock N-terminal domain-containing protein: 1.07
  Fold-change AT3G04210 disease resistance protein (TIR-NBS class), putative,: 2.18
  Fold-change AT3G09920 phosphatidylinositol-4-phosphate 5-kinase family protein: 1.56
  Fold-change AT3G12920 expressed protein: 0.45
  Fold-change AT3G13040 myb family transcription factor: 0.93
  Fold-change AT3G13510 expressed protein: 0.85
  Fold-change AT3G13980 expressed protein: 0.25
  Fold-change AT3G14370 protein kinase family protein: 1.10
  Fold-change AT3G14560 expressed protein: 0.59
  Fold-change AT3G16570 rapid alkalinization factor (RALF) family protein: 0.54
  Fold-change AT3G17860 expressed protein: 0.78
  Fold-change AT3G18830 polyol/cyclitol/monosaccharide-H+-symporte: 1.64
  Fold-change AT3G19380 U-box domain-containing protein: 0.67
  Fold-change AT3G23030 auxin-responsive protein/indoleacetic acid-induced protein 2 (IAA2): 0.55
  Fold-change AT3G23550 MATE efflux family protein: 0.67
  Fold-change AT3G25710 basic helix-loop-helix (bHLH) family protein: 0.48
  Fold-change AT3G25900 homocysteine S-methyltransferase 1 (HMT-1): 1.32
  Fold-change AT3G26910 hydroxyproline-rich glycoprotein family protein: 2.49
  Fold-change AT3G30180 cytochrome p450 enzyme: 0.09
  Fold-change AT3G46880 expressed protein,: 1.50
  Fold-change AT3G47800 aldose 1-epimerase family protein: 0.91
  Fold-change AT3G48970 copper-binding family protein: 0.40
  Fold-change AT3G49810 U-box domain-containing protein: 1.29
  Fold-change AT3G50650 scarecrow-like transcription factor 7 (SCL7): 1.51
  Fold-change AT3G50660 steroid 22-alpha-hydroxylase (CYP90B1) (DWF4): 0.47
  Fold-change AT3G50750 brassinosteroid signalling positive regulator-related (BEH1): 0.63
  Fold-change AT3G52490 heat shock protein-related: 1.17
  Fold-change AT3G53810 lectin protein kinase: 2.28
  Fold-change AT3G54950 patatin-related,: 0.58
  Fold-change AT3G55120 chalcone-flavanone isomerase: 0.94
  Fold-change AT3G55150 exocyst subunit EXO70 family protein: 3.44
  Fold-change AT3G55840 expressed protein: 1.05
  Fold-change AT3G61460 zinc finger (C3HC4-type RING finger) family protein (BRH1): 0.43
  Fold-change AT3G63300 expressed protein: 1.26
  Fold-change AT4G01680 myb family transcription factor (MYB55): 0.21
  Fold-change AT4G02410 lectin protein kinase family protein: 2.60
  Fold-change AT4G08040 1-aminocyclopropane-1-carboxylate synthase, putative: 0.08
  Fold-change AT4G09460 myb family transcription factor: 1.50
  Fold-change AT4G12390 invertase/pectin methylesterase inhibitor family protein: 0.75
  Fold-change AT4G12410 auxin-responsive family protein: 0.66
  Fold-change AT4G14130 xyloglucan:xyloglucosyl transferase: 0.37
  Fold-change AT4G15975 zinc finger (C3HC4-type RING finger) family protein: 2.33
  Fold-change AT4G16146 expressed protein: 0.91
